Results from PubChem BioAssay AID328 (DTP/NCI, 2004).
“And” between values parts separate entries of the source, which are not always exact repeats. Equal values may be shown once. Inconclusive results and toxic doses are left out.

Test system: BDF1 mice, P388 leukemia ip, median survival T/C
Experiment: NCI In Vivo Anticancer Drug Screen. Data for tumor model P388 Leukemia (intraperitoneal) in B6D2F1 (BDF1) mice
Conditions: endpoint: median survival time, higher = longer survival
How it was run: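 In tumour-bearing mice, survival after compound treatment is set against the vehicle group and given as a quotient.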

[1] = dose: 25.0 mg/kg/injection, schedule: Q01DX009 (ip), vehicle: Klucel (hydroxypropylcellulose) (HPC)
[2] = dose: 50.0 mg/kg/injection, schedule: Q01DX009 (ip), vehicle: Klucel (hydroxypropylcellulose) (HPC)
[3] = dose: 100.0 mg/kg/injection, schedule: Q04DX003 (ip), vehicle: Klucel (hydroxypropylcellulose) (HPC)
[4] = dose: 50.0 mg/kg/injection, schedule: Q04DX003 (ip), vehicle: saline with Tween-80
[5] = dose: 12.5 mg/kg/injection, schedule: Q04DX003 (ip), vehicle: saline
[6] = dose: 25.0 mg/kg/injection, schedule: Q01DX009 (ip), vehicle: saline
[7] = dose: 25.0 mg/kg/injection, schedule: Q04DX003 (ip), vehicle: saline
[8] = dose: 50.0 mg/kg/injection, schedule: Q01DX009 (ip), vehicle: saline
[9] = dose: 50.0 mg/kg/injection, schedule: Q04DX003 (ip), vehicle: saline
[10] = dose: 100.0 mg/kg/injection, schedule: Q01DX001 (ip), vehicle: Klucel (hydroxypropylcellulose) (HPC)
[11] = dose: 200.0 mg/kg/injection, schedule: Q01DX001 (ip), vehicle: Klucel (hydroxypropylcellulose) (HPC)
[12] = dose: 400.0 mg/kg/injection, schedule: Q01DX001 (ip), vehicle: Klucel (hydroxypropylcellulose) (HPC)
[13] = dose: 25.0 mg/kg/injection, schedule: Q01DX009 (ip), vehicle: water
[14] = dose: 25.0 mg/kg/injection, schedule: Q04DX003 (ip), vehicle: water
[15] = dose: 50.0 mg/kg/injection, schedule: Q01DX009 (ip), vehicle: water
[16] = dose: 50.0 mg/kg/injection, schedule: Q04DX003 (ip), vehicle: water
[17] = dose: 100.0 mg/kg/injection, schedule: Q04DX003 (ip), vehicle: water
[18] = dose: 100.0 mg/kg/injection, schedule: Q01DX009 (ip), vehicle: saline
[19] = dose: 100.0 mg/kg/injection, schedule: Q01DX009 (ip), vehicle: saline with Tween-80
[20] = dose: 200.0 mg/kg/injection, schedule: Q01DX009 (ip), vehicle: saline with Tween-80
[21] = dose: 400.0 mg/kg/injection, schedule: Q01DX009 (ip), vehicle: saline with Tween-80
[22] = dose: 100.0 mg/kg/injection, schedule: Q01DX009 (ip), vehicle: Klucel (hydroxypropylcellulose) (HPC)
[23] = dose: 200.0 mg/kg/injection, schedule: Q01DX009 (ip), vehicle: Klucel (hydroxypropylcellulose) (HPC)
[24] = dose: 100.0 mg/kg/injection, schedule: Q01DX009 (ip), vehicle: water

CC(=O)NC1CCCN(O)C(=O)/C=C(/C)CCOC(=O)C(NC(C)=O)CCCN(O)C(=O)/C=C(/C)CCOC(=O)C(NC(C)=O)CCCN(O)C(=O)/C=C(/C)CCOC1=O.[Fe] (stereo not drawn)
T/C (dose: 12.5 mg/kg/injection, schedule: Q01DX009 (ip), vehicle: Klucel (hydroxypropylcellulose) (HPC)): 86 % of control | T/C [1]: 92 % of control | T/C [2]: 99 % of control

O=C1NC(=O)C2(CCCCC2)N1
T/C [1]: 91 % of control | T/C (dose: 25.0 mg/kg/injection, schedule: Q04DX003 (ip), vehicle: Klucel (hydroxypropylcellulose) (HPC)): 90 % of control | T/C [2]: 100 % of control | T/C (dose: 50.0 mg/kg/injection, schedule: Q04DX003 (ip), vehicle: Klucel (hydroxypropylcellulose) (HPC)): 100 % of control | T/C [3]: 104 % of control

C[N+](C)(C)Cc1ccccc1
T/C (dose: 25.0 mg/kg/injection, schedule: Q04DX003 (ip), vehicle: saline with Tween-80): 95 % of control | T/C [4]: 112 % of control

C1=CC=CCC=C1
T/C [5]: 100 % of control | T/C [6]: 150 % of control | T/C [7]: 113 % of control | T/C [8]: 111 % of control | T/C [9]: 109 % of control

CC1=CC2C(C3C=CC2(C)C(=O)C3(C)Cc2ccccc2)C(C)(Cc2ccccc2)C1=O (stereo not drawn)
T/C [10]: 95 % of control | T/C [11]: 95 % of control | T/C [12]: 90 % of control

C[Si](C)(C)O[Si](C)(C)c1ccccc1
T/C (dose: 100.0 mg/kg/injection, schedule: Q01DX001 (ip), vehicle: saline): 104 % of control | T/C (dose: 200.0 mg/kg/injection, schedule: Q01DX001 (ip), vehicle: saline): 95 % of control | T/C (dose: 400.0 mg/kg/injection, schedule: Q01DX001 (ip), vehicle: saline): 95 % of control

CC[NH-].CC[NH-].[I][Pt+2][I]
T/C (dose: 3.12 mg/kg/injection, schedule: Q01DX009 (ip), vehicle: saline): 190 % of control | T/C (dose: 6.25 mg/kg/injection, schedule: Q01DX009 (ip), vehicle: saline): 185 % of control

O=C(OCCCl)c1ccc(Cl)cc1
T/C [4]: 108 % of control | T/C (dose: 100.0 mg/kg/injection, schedule: Q04DX003 (ip), vehicle: saline with Tween-80): 100 % of control | T/C (dose: 200.0 mg/kg/injection, schedule: Q04DX003 (ip), vehicle: saline with Tween-80): 94 % of control | T/C (dose: 400.0 mg/kg/injection, schedule: Q04DX003 (ip), vehicle: saline with Tween-80): 94 % of control

O=NO.O=N[O-].O=N[O-].[Co+3].[NH-]CC[N-]CCO.[NH-]CC[N-]CCO
T/C [13]: 104 % of control | T/C [14]: 100 % of control | T/C [15]: 98 % of control | T/C [16]: 109 % of control | T/C [17]: 104 % of control

CCOC(=O)/C(C#N)=C\C=C\c1ccccc1
T/C [3]: 86 % of control | T/C (dose: 200.0 mg/kg/injection, schedule: Q04DX003 (ip), vehicle: Klucel (hydroxypropylcellulose) (HPC)): 90 % of control | T/C (dose: 400.0 mg/kg/injection, schedule: Q04DX003 (ip), vehicle: Klucel (hydroxypropylcellulose) (HPC)): 90 % of control

COC(=O)c1cc(=O)nc(N/N=C/c2ccccc2)s1
T/C (dose: 50.0 mg/kg/injection, schedule: Q01DX005 (ip), vehicle: saline with Tween-80): 109 % of control | T/C (dose: 100.0 mg/kg/injection, schedule: Q01DX005 (ip), vehicle: saline with Tween-80): 110 % of control | T/C (dose: 200.0 mg/kg/injection, schedule: Q01DX005 (ip), vehicle: saline with Tween-80): 109 % of control

Cc1ccc(S(=O)(=O)O)cc1
T/C [6]: 91 % of control | T/C [8]: 91 % of control | T/C [9]: 100 % of control | T/C [18]: 108 % of control | T/C (dose: 100.0 mg/kg/injection, schedule: Q04DX003 (ip), vehicle: saline): 95 % of control

Cc1ccc(-n2c(O)c(C=N)c(=O)n(-c3ccc(C)cc3)c2=O)cc1
T/C [19]: 104 % of control | T/C [20]: 104 % of control | T/C [21]: 95 % of control

Oc1ccc2ccc3[nH]cnc3c2c1
T/C [2]: 95 % of control | T/C [22]: 95 % of control | T/C [23]: 100 % of control

COc1cc2c3c4c1OCc1c5c(cc(c1-4)CC3[N+](C)(C)CC2)OCO5 (stereo not drawn)
T/C (dose: 6.25 mg/kg/injection, schedule: Q01DX001 (ip), vehicle: saline): 105 % of control | T/C (dose: 12.5 mg/kg/injection, schedule: Q01DX001 (ip), vehicle: saline): 99 % of control

CCCCCCCCCCCSCCCCCCCCCCC
T/C [19]: 100 % of control | T/C [20]: 100 % of control | T/C [21]: 100 % of control

CNCCN(C)CCN(C)Cc1ccc(OC)cc1
T/C [13]: 101 % of control | T/C [8]: 111 % of control | T/C [15]: 110 % of control | T/C [18]: 101 % of control | T/C [24]: 93 % of control | T/C (dose: 200.0 mg/kg/injection, schedule: Q01DX009 (ip), vehicle: saline): 104 % of control

CC(=O)Oc1ccc(N2C(=O)C3C(C2=O)C2c4ccccc4C3C3CCCCN32)cc1 (stereo not drawn) (tested in a mixture with another compound)
T/C (dose: 6.25 mg/kg/injection, schedule: Q04DX003 (ip), vehicle: water): 97 % of control | T/C (dose: 12.5 mg/kg/injection, schedule: Q04DX003 (ip), vehicle: water): 101 % of control | T/C [14]: 99 % of control | T/C [16]: 101 % of control | T/C [17]: 91 % of control

COc1cccnc1/C=N/NC(N)=S
T/C (dose: 1.5 mg/kg/injection, schedule: Q01DX009 (ip), vehicle: saline with Tween-80): 115 % of control | T/C (dose: 3.0 mg/kg/injection, schedule: Q01DX009 (ip), vehicle: saline with Tween-80): 118 % of control | T/C (dose: 5.0 mg/kg/injection, schedule: Q01DX009 (ip), vehicle: saline with Tween-80): 157 % of control | T/C (dose: 8.0 mg/kg/injection, schedule: Q01DX009 (ip), vehicle: saline with Tween-80): 158 % of control | T/C (dose: 12.0 mg/kg/injection, schedule: Q01DX009 (ip), vehicle: saline with Tween-80): 158 % of control and 175 % of control

CC1OCC(Br)([N+](=O)[O-])CO1 (stereo not drawn)
T/C [5]: 99 % of control | T/C [7]: 107 % of control

CC1(C)C/C(=C\c2ccc(Br)cc2)C(=O)c2ccccc21
T/C [22]: 100 % of control | T/C [23]: 105 % of control | T/C (dose: 400.0 mg/kg/injection, schedule: Q01DX009 (ip), vehicle: Klucel (hydroxypropylcellulose) (HPC)): 95 % of control

c1ccc2cc(Nc3ccc(Nc4ccc5ccccc5c4)cc3)ccc2c1
T/C [10]: 100 % of control | T/C [11]: 91 % of control | T/C [12]: 95 % of control

Cn1ccc(=O)c2cc([N+](=O)[O-])ccc21
T/C (dose: 12.5 mg/kg/injection, schedule: Q01DX009 (ip), vehicle: water): 94 % of control | T/C [13]: 111 % of control | T/C [14]: 102 % of control | T/C [15]: 93 % of control | T/C [16]: 100 % of control | T/C [24]: 94 % of control | T/C [17]: 109 % of control | T/C (dose: 200.0 mg/kg/injection, schedule: Q01DX009 (ip), vehicle: water): 93 % of control | T/C (dose: 200.0 mg/kg/injection, schedule: Q04DX003 (ip), vehicle: water): 92 % of control | T/C (dose: 300.0 mg/kg/injection, schedule: Q01DX009 (ip), vehicle: water): 113 % of control
